Values joined by “and” are separate entries in the source; they are usually repeats but may differ in a detail not shown here. Identical values can stand only once. Like-named read-outs stand apart in the source and are kept apart here.
Columns and labels:
[1] = target: T1, PS1 T281P γ-secretase complex (Homo sapiens, UniProt P49768, T281P); assay: in vitro cleavage assay, Aβ40 production by AlphaLISA; format: biochemical; settings: for remaining activity at 0.002 µM / remaining activity at 0.01 µM / remaining activity at 0.04 µM / remaining activity at 0.2 µM / remaining activity at 1 µM / remaining activity at 10 µM: 4 h; for remaining activity at 0.002 µM / remaining activity at 0.01 µM / remaining activity at 0.04 µM / remaining activity at 0.2 µM / remaining activity at 1 µM / remaining activity at 10 µM / Caculated Aβ40 production / raw data from α-Lisa reading: PS1 T281P
T1 construct: made in house
Experimental: (§1) In total we generated six variants, including single and double residue swapping of Thr281/Leu282 in PS1 with Pro287/Ile288 in PS2, respectively. MRK-560 response to the six PS1/PS2 mutant-containing complexes, each purified to homogeneity, was examined in the in vitro cleavage assay (Fig. 4). All proteins used for the activity assay were sub-cloned, expressed and purified as described. Protein concentration was determined using the Bradford method. […] The cleavage reaction was conducted at 37 °C for 4 h. The cleaved products of these substrates were detected using a monoclonal antibody (1:1000 dilution, CW0299, CWBio) against the C-terminal Myc tag. Aβ40 production was detected using the AlphaLISA assay (PerkinElmer) as described. The IC50 values and the inhibition curves were calculated using Prism 8.0. Statistical analysis of Aβ40 was performed using Prism 8 (GraphPad Software, San Diego, CA, USA). IC50 were determined by a four-parameter logistic regression. The statistical details can be found in Figs. 1, 4 and legends. Data are expressed as mean ± SD.

[2] = target: T2, PS1 TL281-282PI γ-secretase complex (Homo sapiens, UniProt P49768, L282I/T281P); assay: as above; format: biochemical; settings: for remaining activity at 0.002 µM / remaining activity at 0.01 µM / remaining activity at 0.04 µM / remaining activity at 0.2 µM / remaining activity at 1 µM / remaining activity at 10 µM: 4 h; for remaining activity at 0.002 µM / remaining activity at 0.01 µM / remaining activity at 0.04 µM / remaining activity at 0.2 µM / remaining activity at 1 µM / remaining activity at 10 µM / Caculated Aβ40 production / raw data from α-Lisa reading: PS1TL 281 282PI
T2 construct: made in house
Experimental: as §1

[3] = target: T3, PS2 I288L γ-secretase complex (Homo sapiens, UniProt P49810, I288L); assay: as above; format: biochemical; settings: for remaining activity at 0.002 µM / remaining activity at 0.04 µM / remaining activity at 0.2 µM / remaining activity at 1 µM / remaining activity at 10 µM / remaining activity at 20 µM: 4 h
T3 construct: made in house
Experimental: as §1

[4] = target: T4, PS2 P287T γ-secretase complex (Homo sapiens, UniProt P49810, P287T); assay: as above; format: biochemical; settings: for remaining activity at 0.002 µM / remaining activity at 0.04 µM / remaining activity at 0.2 µM / remaining activity at 1 µM / remaining activity at 10 µM / remaining activity at 20 µM: 4 h
T4 construct: made in house
Experimental: as §1

[5] = test system: PS1-complex over PS2; settings: cited from earlier work
[6] = test system: Notch; parameters: method as in PMID 17099072, PMID 16443723; settings: wild-type (WT) mouse model; cited from earlier work
[7] = MRK-560 2 nM, mean of 3 replicates, read-out: Normalized production (control=1), Mean
[8] = MRK-560 2 nM, replicates, read-out: Normalized production (control=1)
[9] = MRK-560 10 nM, mean of 3 replicates, read-out: Normalized production (control=1), Mean
[10] = MRK-560 10 nM, replicates, read-out: Normalized production (control=1)
[11] = MRK-560 40 nM, mean of 3 replicates, read-out: Normalized production (control=1), Mean
[12] = MRK-560 40 nM, replicates, read-out: Normalized production (control=1)
[13] = MRK-560 200 nM, mean of 3 replicates, read-out: Normalized production (control=1), Mean
[14] = MRK-560 200 nM, replicates, read-out: Normalized production (control=1)
[15] = MRK-560 1 μM, mean of 3 replicates, read-out: Normalized production (control=1), Mean
[16] = MRK-560 1 μM, replicates, read-out: Normalized production (control=1)
[17] = MRK-560 10 μM, mean of 3 replicates, read-out: Normalized production (control=1), Mean
[18] = MRK-560 10 μM, replicates, read-out: Normalized production (control=1)
[19] = MRK-560 20 μM, mean of 3 replicates, read-out: Normalized production (control=1), Mean
[20] = MRK-560 20 μM, replicates, read-out: Normalized production (control=1)

O=S(=O)(NC1CCC(c2cc(F)ccc2F)(S(=O)(=O)c2ccc(Cl)cc2)CC1)C(F)(F)F (stereo not drawn) [MRK-560, N-[cis-4-[(4-chlorophenyl)sulfonyl]-4-(2,5-difluorophenyl)cyclohexyl]-1,1,1-trifluoromethanesulfonamide]
IC50 [1]: 55 ± 6 nM
remaining activity at 0.002 µM [1, 7]: 99.3%
remaining activity at 0.002 µM [1, 8]: 100%
remaining activity at 0.01 µM [1, 9]: 92.8%
remaining activity at 0.01 µM [1, 10]: 94.3%
remaining activity at 0.04 µM [1, 11]: 62.2%
remaining activity at 0.04 µM [1, 12]: 65.5%
remaining activity at 0.2 µM [1, 13]: 10.6%
remaining activity at 0.2 µM [1, 14]: 11%
remaining activity at 1 µM [1, 15]: 1.23%
remaining activity at 1 µM [1, 16]: 1.29%
remaining activity at 10 µM [1, 17]: 0.61%
remaining activity at 10 µM [1, 18]: 0.59%
Caculated Aβ40 production ([1]; MRK-560 2 nM, replicates): 345.9981 and 336.9974 and 315.8225
raw data from α-Lisa reading ([1]; MRK-560 2 nM, replicates): 52003 and 49017 and 53262
Caculated Aβ40 production ([1]; MRK-560 10 nM, replicates): 309.2203 and 316.1610 and 308.6161
raw data from α-Lisa reading ([1]; MRK-560 10 nM, replicates): 49065 and 47993 and 48079
Caculated Aβ40 production ([1]; MRK-560 40 nM, replicates): 209.7683 and 219.6031 and 196.3837
raw data from α-Lisa reading ([1]; MRK-560 40 nM, replicates): 35008 and 31515 and 33534
Caculated Aβ40 production ([1]; MRK-560 200 nM, replicates): 35.0895 and 36.8617 and 34.7461
raw data from α-Lisa reading ([1]; MRK-560 200 nM, replicates): 6240 and 5889 and 5946
Caculated Aβ40 production ([1]; MRK-560 1 μM, replicates): 4.0253 and 4.3330 and 4.0016
raw data from α-Lisa reading ([1]; MRK-560 1 μM, replicates): 795 and 739 and 743
Caculated Aβ40 production ([1]; MRK-560 10 μM, replicates): 2.0149 and 1.9676 and 2.1390
raw data from α-Lisa reading ([1]; MRK-560 10 μM, replicates): 395 and 424 and 403
IC50 [2]: 195 ± 16 nM
remaining activity at 0.002 µM [2, 7]: 116%
remaining activity at 0.002 µM [2, 8]: 115%
remaining activity at 0.01 µM [2, 9]: 112%
remaining activity at 0.01 µM [2, 10]: 113%
remaining activity at 0.04 µM [2, 11]: 105%
remaining activity at 0.04 µM [2, 12]: 103%
remaining activity at 0.2 µM [2, 13]: 57.2%
remaining activity at 0.2 µM [2, 14]: 59.1%
remaining activity at 1 µM [2, 15]: 11.1%
remaining activity at 1 µM [2, 16]: 11%
remaining activity at 10 µM [2, 17]: 1.33%
remaining activity at 10 µM [2, 18]: 1.43%
Caculated Aβ40 production ([2]; MRK-560 2 nM, replicates): 380.9708 and 384.7930 and 381.0949
raw data from α-Lisa reading ([2]; MRK-560 2 nM, replicates): 58097 and 58620 and 58114
Caculated Aβ40 production ([2]; MRK-560 10 nM, replicates): 372.0557 and 371.8958 and 369.4343
raw data from α-Lisa reading ([2]; MRK-560 10 nM, replicates): 56873 and 56851 and 56512
Caculated Aβ40 production ([2]; MRK-560 40 nM, replicates): 339.5167 and 363.4357 and 337.7821
raw data from α-Lisa reading ([2]; MRK-560 40 nM, replicates): 52356 and 55684 and 52113
Caculated Aβ40 production ([2]; MRK-560 200 nM, replicates): 195.2943 and 180.8050 and 191.3579
raw data from α-Lisa reading ([2]; MRK-560 200 nM, replicates): 31350 and 29146 and 30753
Caculated Aβ40 production ([2]; MRK-560 1 μM, replicates): 36.3190 and 36.2828 and 37.2900
raw data from α-Lisa reading ([2]; MRK-560 1 μM, replicates): 6150 and 6144 and 6311
Caculated Aβ40 production ([2]; MRK-560 10 μM, replicates): 4.7413 and 3.9425 and 4.5046
raw data from α-Lisa reading ([2]; MRK-560 10 μM, replicates): 864 and 729 and 824
remaining activity at 0.002 µM [3, 7]: 110%
remaining activity at 0.002 µM [3, 8]: 110%
remaining activity at 0.04 µM [3, 11]: 65.9%
remaining activity at 0.04 µM [3, 12]: 68%
remaining activity at 0.2 µM [3, 13]: 17.7%
remaining activity at 0.2 µM [3, 14]: 17.9%
remaining activity at 1 µM [3, 15]: 5.3%
remaining activity at 1 µM [3, 16]: 5.2%
remaining activity at 10 µM [3, 17]: 1.39%
remaining activity at 10 µM [3, 18]: 1.35%
remaining activity at 20 µM [3, 19]: 1.69%
remaining activity at 20 µM [3, 20]: 1.61%
Caculated Aβ40 production ([3]; MRK-560 2 nM, replicates): 534.8273 and 537.0982 and 529.5442
raw data from α-Lisa reading ([3]; MRK-560 2 nM, replicates): 78346 and 78633 and 77677
Caculated Aβ40 production ([3]; MRK-560 40 nM, replicates): 330.6964 and 306.7347 and 323.3048
raw data from α-Lisa reading ([3]; MRK-560 40 nM, replicates): 51118 and 47725 and 50076
Caculated Aβ40 production ([3]; MRK-560 200 nM, replicates): 87.0033 and 86.1156 and 85.5883
raw data from α-Lisa reading ([3]; MRK-560 200 nM, replicates): 14434 and 14291 and 14206
Caculated Aβ40 production ([3]; MRK-560 1 μM, replicates): 25.2908 and 26.2376 and 25.7761
raw data from α-Lisa reading ([3]; MRK-560 1 μM, replicates): 4315 and 4473 and 4396
Caculated Aβ40 production ([3]; MRK-560 10 μM, replicates): 6.5772 and 6.8972 and 6.7964
raw data from α-Lisa reading ([3]; MRK-560 10 μM, replicates): 1174 and 1228 and 1211
Caculated Aβ40 production ([3]; MRK-560 20 μM, replicates): 7.8160 and 7.8990 and 8.9905
raw data from α-Lisa reading ([3]; MRK-560 20 μM, replicates): 1383 and 1397 and 1581
IC50 ([3]; mean ± SD): 57 ± 10 nM
remaining activity at 0.002 µM [4, 7]: 86.9%
remaining activity at 0.002 µM [4, 8]: 87.8%
remaining activity at 0.04 µM [4, 11]: 68.9%
remaining activity at 0.04 µM [4, 12]: 70.8%
remaining activity at 0.2 µM [4, 13]: 33.9%
remaining activity at 0.2 µM [4, 14]: 34.2%
remaining activity at 1 µM [4, 15]: 8.68%
remaining activity at 1 µM [4, 16]: 8.69%
remaining activity at 10 µM [4, 17]: 1.62%
remaining activity at 10 µM [4, 18]: 1.63%
remaining activity at 20 µM [4, 19]: 1.25%
remaining activity at 20 µM [4, 20]: 1.14%
Caculated Aβ40 production ([4]; MRK-560 2 nM, replicates): 520.0011 and 533.1358 and 528.5350
raw data from α-Lisa reading ([4]; MRK-560 2 nM, replicates): 78132 and 77549 and 76464
Caculated Aβ40 production ([4]; MRK-560 40 nM, replicates): 419.8422 and 429.7041 and 404.1611
raw data from α-Lisa reading ([4]; MRK-560 40 nM, replicates): 64687 and 61254 and 63367
Caculated Aβ40 production ([4]; MRK-560 200 nM, replicates): 203.3520 and 207.5605 and 206.0857
raw data from α-Lisa reading ([4]; MRK-560 200 nM, replicates): 33202 and 32980 and 32568
Caculated Aβ40 production ([4]; MRK-560 1 μM, replicates): 52.1767 and 52.7609 and 53.0714
raw data from α-Lisa reading ([4]; MRK-560 1 μM, replicates): 8864 and 8915 and 8768
Caculated Aβ40 production ([4]; MRK-560 10 μM, replicates): 9.7739 and 9.8808 and 9.9223
raw data from α-Lisa reading ([4]; MRK-560 10 μM, replicates): 1731 and 1738 and 1713
Caculated Aβ40 production ([4]; MRK-560 20 μM, replicates): 7.8338 and 6.8972 and 8.0769
raw data from α-Lisa reading ([4]; MRK-560 20 μM, replicates): 1228 and 1427 and 1386
IC50 ([4]; mean ± SD): 106 ± 27 nM
higher suppression of the PS1-complex over PS2 [5]: 37 folds
Notch-related side effect [6]: does not induce Notch-related side effect
